According to US8637439B2, “Bathing gel with improved environmental profile” (Coty Inc., priority 2009, dated 2014):

How the values were obtained:
[1] = tested on: aquatic trophic levels (fish, crustaceous, algae); assay: Chronic aquatic toxicity (aquatic trophic levels); assay type: in vivo
Text: (§1) A comparison of the relative aquatic toxicity profile of the long-chain alkyl hydroxyalkyl cellulose derivative compared to anionic alketh surfactant is shown in Table 3.
(§2) The terms used are defined as follows: • LC50 or EC50: Lethal or effect concentration 50=Concentration in water having 50% chance of causing adverse effects or death to aquatic life) • SFacute: Safety Factor, determined according the number of trophic levels (fish, crustaceous, algae) studied (the largest, the best) • TFacute: L(E)C50/SFacute • NOEC: No observed effect concentration=The highest concentration for which the difference from the control group is not statistically significant in a long term study • SFchronic: Safety Factor, determined according the number of trophic levels (fish, crustaceous, algae) studied • TFchronic: NOEC/SFchronic

[2] = tested on: aquatic trophic levels (fish, crustaceous, algae); assay: Acute aquatic toxicity (aquatic trophic levels); assay type: in vivo; conditions: L(E)C50/SFacute
Text: as §1, §2

## C 12/15 A 1-3 EO sulfate
[1]; NOEC/SFchronic
  TFchronic: 0.01
[1]; chronic toxicity, long term study
  NOEC: 0.1
[2]
  TFacute: 0.0041
